Experimental data from EP0623350A1, “Use of Bradykinin-antagonists for the manufacture of a medicament for the prophylaxis and treatment of arteriosclerosis” (HOECHST AKTIENGESELLSCHAFT, priority 1993, dated 1994).

What was measured:
Assay type in all cases: in vivo, weißen Kaninchen (New Zealand)
[1] = test system: atherosklerotischen Plaques in der Aorta; assay: Atherosclerotic plaques in the aorta of cholesterol-fed rabbits (Oil Red O staining, image analysis)
Excerpt: (§1) Der Versuch wurde mit weißen Kaninchen (New Zealand) männlichen Geschlechts mit einem Gewicht von 3-4 Kilogramm in Anlehnung an die publizierten Methoden nach A. Kisanuki, Y. Asada, K. Hatakeyama, T. Hayashi und A. Sumiyoshi: Contributions of the Endothelium to Intimal Thickening in Normocholesterolemic and Hypercholesterolemic Rabbits, Arteriosclerosis and Thrombosis (1992), 12; 1198 - 1205 und J. Cooke, A. Singer, P. Tsao, P. Zera, R.Rowan and M. Billingham: Antiatherogenic Effects of L-Arginine in the Hypercholesterolemic Rabbit(1992), 90; 1168 - 1172 durchgeführt. Nach einer Woche unter Standard-Kaninchenfutter (Altromin 2834, Lage-Lippe, Deutschland) wurden zwei Gruppen mit je 15 Kaninchen drei Monate lang mit cholesterinreicher Diät gefüttert. Die Diät enthielt 0.25% Cholesterin und 3% Kokosnußöl. Eine der beiden Gruppen erhielt zusätzlich eine subkutane Dauerinfusion von HOE 140 über implantierte osmotische Minipumpen über den gesamten Zeitraum von drei Monaten. Die Dosis betrug 100 µg/kg/Tag.
(§2) Eine weitere Gruppe von 15 Kaninchen, die nicht-atherogene normale Diät erhielt, diente als negative Kontrolle. Futter und Wasser wurden ad libitum gegeben. Der Nachweis, daß die gewählte Dosis HOE 140 die Wirkung endogener Kinine hemmen kann, wurde über die Hemmung der blutdrucksenkenden Wirkung von exogenem Bradykinin geführt. Am Ende des Versuches, nach dreimonatiger Behandlung, wurden die Tiere narkotisiert und der basale Blutdruck gemessen. Der basale Blutdruck lag zwischen 100 und 110 mm Hg. Nach der Messung des basalen Blutdrucks wurde Bradykinin intraarteriell als Bolus in einer Dosis von 10 ng injiziert. Bei den Tieren mit normalem Futter führte dies zu einem Blutdruckabfall von 21 mm Hg, bei den Tieren mit atherogener Diät betrug der Blutdruckabfall 24 mm Hg. Bei Kaninchen mit atherogener Diät, die mit HOE 140 behandelt wurden, fiel der Blutdruck nur noch um 3.7 mm Hg, was eine effektive Hemmung der Bradykininwirkung durch HOE 140 anzeigte.
(§3) Danach wurden die Kaninchen mit einer hohen Dosis von Pentobarbital (40 mg/kg) getötet und eine komplette Autopsie durchgeführt. Die atherosklerotischen Plaques wurden durch Öl-Rot O ([…]) sichtbar gemacht, ihr Ausmaß mittels eines Bildanalysators quantifiziert und die prozentuale Plaquegröße in der Aorta bestimmt. Weiterhin wurden die Cholesterinfraktionen (HDL, LDL und VLDL) im Serum mit Hilfe der Ultrazentrifugation bestimmt.

[2] = test system: Serum Lipoprotein Fraktionen; assay: Serum cholesterol/lipoprotein fractions (HDL, LDL, VLDL) by ultracentrifugation in cholesterol-fed rabbits
Excerpt: as §1, §3

[3] = test system: blutdrucksenkenden Wirkung von exogenem Bradykinin; assay: Inhibition of the blood-pressure-lowering effect of exogenous bradykinin in anaesthetised rabbits; details: Bradykinin 10 ng intra-arterial bolus; anaesthetised rabbits on atherogenic diet after 3 months HOE 140 100 µg/kg/Tag s.c.; untreated controls 21 and 24 mm Hg
Excerpt: as §2

[4] = atherogenic diet 3 months plus HOE 140 100 µg/kg/Tag s.c. continuous infusion, mean ± S.E.M.

Question: `N=C(N)NCCC[C@@H](N)C(=O)N[C@@H](CCCNC(=N)N)C(=O)N1CCC[C@H]1C(=O)N1C[C@H](O)C[C@H]1C(=O)NCC(=O)N[C@@H](Cc1cccs1)C(=O)N[C@@H](CO)C(=O)N1Cc2ccccc2C[C@@H]1C(=O)N1[C@H](C(=O)N[C@@H](CCCNC(=N)N)C(=O)O)C[C@@H]2CCCC[C@@H]21` [HOE 140] was tested. Which “Plaques in der Aorta: Fläche in Prozent der Intimafläche, Thorakale Aorta” value [1, 4] did it give?
Answer: The value was 1.6 ± 1.1 Prozent der Intimafläche.

Question: What about the “Plaques in der Aorta: Fläche in Prozent der Intimafläche, Aortenbogen” value ([1]; atherogenic diet (0.25% Cholesterin, 3% Kokosnußöl) 3 months plus HOE 140 100 µg/kg/Tag s.c. continuous infusion, mean ± S.E.M.) of the same molecule?
Answer: Its value is 23.4 ± 5.4 Prozent der Intimafläche.

Question: What about the “Plaques in der Aorta: Fläche in Prozent der Intimafläche, Abdominelle Aorta 1” value ([1]; first section of abdominal aorta, atherogenic diet 3 months plus HOE 140 100 µg/kg/Tag s.c. continuous infusion, mean ± S.E.M.) of the same molecule?
Answer: The value was 1.4 ± 0.6 Prozent der Intimafläche.

Question: What about the “Arteriosklerotische Veränderungen der Gefäßwände” value ([1]; result in words, cholesterol-fed rabbits treated with HOE 140) of the same molecule?
Answer: The value was “stark reduziert”.

Question: What about the “Atherosklerotische Veränderungen des Aortenbogens und der Aortenabschnitte in Brust und Bauch” value ([1]; result in words, versus atherogenic diet alone) of the same molecule?
Answer: Its value is “bei weitem geringer”.

Question: And the “Plaques in der Aorta: Fläche in Prozent der Intimafläche, Abdominelle Aorta 2” value ([1]; second section of abdominal aorta, atherogenic diet 3 months plus HOE 140 100 µg/kg/Tag s.c. continuous infusion, mean ± S.E.M.)?
Answer: The value was 7.0 ± 1.5 Prozent der Intimafläche.

Question: And the “Serum Lipoprotein Fraktionen, HDL” value [2, 4]?
Answer: Its value is 4981 ± 576 µg/mL.

Question: What about the “Serum Lipoprotein Fraktionen, LDL” value [2, 4] of the same molecule?
Answer: The value was 168 ± 21 µg/mL.

Question: What about the “Serum Lipoprotein Fraktionen, VLDL” value [2, 4] of the same molecule?
Answer: The value was 250 ± 12 µg/mL.

Question: And the HDL-Werte ([2]; result in words, HDL raised by cholesterol-rich diet)?
Answer: The HDL-Werte was “keinen Einfluß”.

Question: And the “LDL und VLDL (Serumlipide)” value ([2]; result in words, versus atherogenic diet alone, hardly distinguishable from normal-diet controls)?
Answer: Its value is “stark erniedrigt”.

Question: And the “Blutdruckabfall nach Bradykinin” value [3]?
Answer: The value was 3.7 mm Hg.
